Measurements reported in patent publication US10513519B2, “Solid forms of (1S,4S)-4-(2-(((3S,4R)-3-fluorotetrahydro-2H-pyran-4-yl)amino)-8-((2,4,6-trichlorophenyl)amino)-9H-purin-9-yl)-1-methylcyclohexane-1-carboxamide and methods of their use” (Signal Pharmaceuticals, LLC, priority 2016, dated 2019).

Tested on: cancer cell lines
Assay: Multiplexed cytotoxicity assay: cell proliferation (relative cell count IC50, GI50)
Type: cell-based
Experimental: (§1) Cells are grown in RPMI1640, 10% FBS, 2 mM L-alanyl-L-Glutamine, 1 mM Na pyruvate or a special medium in a humidified atmosphere of 5% CO2 at 37° C. Cells are seeded into 384-well plates and incubated in a humidified atmosphere of 5% CO2 at 37° C. Compounds are added 24 h post cell seeding. At the same time, a time zero untreated cell plate is generated. After a 72 hour incubation period, cells are fixed and stained with fluorescently labeled antibodies and nuclear dye to allow visualization of nuclei, apoptotic cells and mitotic cells. Apoptotic cells are detected using an anti-active caspase-3 antibody. Mitotic cells are detected using an anti phospho-histone-3 antibody. Compounds are serially diluted 3.16-fold and assayed over 10 concentrations in a final assay concentration of 0.1% DMSO from the highest test concentration of 10 μM. Automated fluorescence microscopy was carried out using a Molecular Devices ImageXpress Micro XL high-content imager, and images are collected with a 4× objective.
(§2) Sixteen-bit TIFF images are acquired and analyzed with MetaXpress 5.1.0.41 software. Cell proliferation is measured by the signal intensity of the incorporated nuclear dye. The cell proliferation assay output is referred to as the relative cell count. To determine the cell proliferation end point, the cell proliferation data output is transformed to percentage of control (POC) using the following formula: POC=relative cell count(compound wells)/relative cell count(vehicle wells)×100
(§3) GI50 is the concentration needed to reduce the observed growth by half. This is the concentration that inhibits the growth to the level midway between growth in untreated cells and the number of cells seeded in the well (Time zero value). The IC50 values are calculated using nonlinear regression to fit data to a sigmoidal 4 point, 4 parameter One-Site dose response model, where: y(fit)=A+[(B−A)/(1+((C/x)^D))].
as §1, with “In another experiment, cells were grown” for “Cells are grown”, “Cells were” for “Cells are”, “Compounds were” for “Compounds are”, “plate was” for “plate is”, “cells were” for “cells are”, “images were” for “images are”
as §2, with “images were” for “images are”, “proliferation was” for “proliferation is”, “output was” for “output is”
as §3, with “GI50 refers to” for “GI50 is”, “This corresponds to” for “This is”, “values were” for “values are”

[1] = Homo sapiens, SK-N-AS, 72 h, SKNAS, CNS, Neuroblastoma
[2] = Homo sapiens, SK-N-DZ, 72 h, SKNDZ, CNS, Neuroblastoma
[3] = Homo sapiens, SK-N-FI, 72 h, SKNFI, CNS, Neuroblastoma
[4] = Homo sapiens, SK-NEP-1, SKNEP1 (Kidney)
[5] = Homo sapiens, SK-OV-3, 72 h, SKOV3, Female GU, Ovary, 72 h
[6] = Homo sapiens, SK-UT-1, 72 h, SKUT1, Soft Tissue, Sarcoma, 72 h
[7] = Homo sapiens, SNB-19, SNB19 (CNS, Glioma)
[8] = Homo sapiens, SNU1, 72 h, SNU1, Stomach, 72 h
[9] = Homo sapiens, SNU-5, 72 h, SNU5, Stomach, 72 h
[10] = Homo sapiens, SNU-16, 72 h, SNU16, Stomach, 72 h
[11] = Homo sapiens, SNU-423, SNU423 (Liver)
[12] = Homo sapiens, SNU-C2B, SNUC2B (Colon)
[13] = Homo sapiens, ST486, ST486 (Hematopoietic and lymphoid, Lymphoma)
[14] = Homo sapiens, SU-DHL10, SUDHL10 (Hematopoietic and lymphoid, Lymphoma)
[15] = Homo sapiens, SU-DHL-4, SUDHL4 (Hematopoietic and lymphoid, Lymphoma)
[16] = Homo sapiens, SU-DHL-5, SUDHL5 (Hematopoietic and lymphoid, Lymphoma)
[17] = Homo sapiens, SU-DHL-8, SUDHL8 (Hematopoietic and lymphoid, Lymphoma)
[18] = Homo sapiens, SU.86.86, 72 h, SU8686, Pancreas, 72 h
[19] = Homo sapiens, SUP-T1, SUPT1 (Hematopoietic and lymphoid, Lymphoma)
[20] = Homo sapiens, SW13, SW13 (Endocrine, Adrenal gland)
[21] = Homo sapiens, SW48, SW48 (Colon)
[22] = Homo sapiens, SW480, SW480 (Colon)
[23] = Homo sapiens, SW684, 72 h, SW684, Soft Tissue, Sarcoma, 72 h
[24] = Homo sapiens, SW837, SW837 (Colon)
[25] = Homo sapiens, SW872, 72 h, SW872, Soft Tissue, Sarcoma, 72 h
[26] = Homo sapiens, SW900, 72 h, SW900, Lung, SCLC, 72 h
[27] = Homo sapiens, SW948, SW948 (Colon)
[28] = Homo sapiens, SW 954, 72 h, SW954, Female GU, Vulva, 72 h
[29] = Homo sapiens, SW 962, 72 h, SW962, Female GU, Vulva, 72 h
[30] = Homo sapiens, SW982, 72 h, SW982, Soft Tissue, Sarcoma, 72 h
[31] = Homo sapiens, SW1088, SW1088 (CNS, Glioma)
[32] = Homo sapiens, SW1353, 72 h, SW1353, Soft Tissue, Osteosarcoma, 72 h
[33] = Homo sapiens, SW1417, SW1417 (Colon)
[34] = Homo sapiens, SW1463, SW1463 (Colon)
[35] = Homo sapiens, SW1783, SW1783 (CNS, Glioma)
[36] = Homo sapiens, SW-403, SW403 (Colon)
[37] = Homo sapiens, SW-620, SW620 (Colon)
[38] = Homo sapiens, SiHa, SIHA (Female GU, Cervix)
[39] = Homo sapiens, T47D, T47D (Breast)
[40] = Homo sapiens, T98G, T98G (CNS, Glioma)
[41] = Homo sapiens, TCC-SUP, TCCSUP (Bladder)
[42] = Homo sapiens, THP-1, THP1 (Hematopoietic and lymphoid, Leukemia)
[43] = Homo sapiens, U2OS, 72 h, Soft Tissue, Osteosarcoma
[44] = Homo sapiens, U138-MG, U138MG (CNS, Glioma)
[45] = Homo sapiens, U-87 MG, U87MG (CNS, Glioma)
[46] = Homo sapiens, U-118-MG, U118MG (CNS, Glioma)
[47] = Homo sapiens, UMUC3, UMUC3 (Bladder)
[48] = Homo sapiens, WM 266-4, 72 h, WM2664, Skin, Melanoma, 72 h
[49] = Homo sapiens, WiDr, WIDR (Colon)
[50] = Homo sapiens, YAPC, 72 h, Pancreas
[51] = Homo sapiens, ZR-75-1, ZR751 (Breast)
[52] = Hs 445, HS445 (Hematopoietic and lymphoid, Lymphoma)
[53] = KG1 (Hematopoietic and lymphoid, Leukemia)
[54] = KHOS-240S, 72 h, KHOS240S, Soft Tissue, Osteosarcoma
[55] = MS751, 72 h, MS751, Female GU, Ovary, 72 h
[56] = MX1 (Hematopoietic and lymphoid, Leukemia)
[57] = NAMALWA (Hematopoietic and lymphoid, Lymphoma)
[58] = OE21, 72 h, OE21, Head and Neck, Esophageal, 72 h
[59] = RAMOSRA1 (Hematopoietic and lymphoid, Lymphoma)
[60] = SKO-007, 72 h, SKO007, Hematopoietic and lymphoid, Myeloma, 72 h
[61] = SR (Hematopoietic and lymphoid, Lymphoma)
[62] = SW579, 72 h, SW579, Endocrine, Thyroid, 72 h
[63] = TE 381.T, 72 h, TE381T, Soft Tissue, Sarcoma
[64] = TF1 (Hematopoietic and lymphoid, Leukemia)
[65] = TUR (Hematopoietic and lymphoid, Lymphoma)

C[C@]1(C(N)=O)CC[C@@H](n2c(Nc3c(Cl)cc(Cl)cc3Cl)nc3cnc(N[C@@H]4CCOC[C@H]4F)nc32)CC1 [Compound 1, cis-4-[2-{[(3S,4R)-3-fluorooxan-4-yl]amino}-8-(2,4,6-trichloroanilino)-9H-purin-9-yl]-1-methylcyclohexane-1-carboxamide]
GI50 [1]: 0.0489 µM
IC50 [1]: 0.132 µM
GI50 [2]: 7.4 µM
IC50 [2]: > 10 µM
GI50 [3]: 0.0151 µM
IC50 [3]: 0.135 µM
GI50 [4]: > 10 µM
IC50 [4]: > 10 µM
GI50 [5]: 0.547 µM
IC50 [5]: > 10 µM
GI50 [6]: > 10 µM
IC50 [6]: > 10 µM
GI50 [7]: 0.163 µM
IC50 [7]: 0.244 µM
GI50 [8]: 0.0355 µM
IC50 [8]: 0.0631 µM
GI50 [9]: 0.0368 µM
IC50 [9]: 0.0943 µM
GI50 [10]: > 10 µM
IC50 [10]: > 10 µM
GI50 [11]: 0.192 µM
IC50 [11]: 0.276 µM
GI50 [12]: 0.0544 µM
IC50 [12]: 0.722 µM
GI50 [13]: 5.02 µM
IC50 [13]: 6.14 µM
GI50 [14]: 1.23 µM
IC50 [14]: 1.4 µM
GI50 [15]: 0.168 µM
IC50 [15]: 0.332 µM
GI50 [16]: 0.0011 µM
IC50 [16]: 0.0013 µM
GI50 [17]: 0.0193 µM
IC50 [17]: 0.0406 µM
GI50 [18]: 0.0635 µM
IC50 [18]: 0.132 µM
GI50 [19]: 0.0196 µM
IC50 [19]: 0.0466 µM
GI50 [20]: 0.0711 µM
IC50 [20]: 0.135 µM
GI50 [21]: 0.0018 µM
IC50 [21]: 0.0031 µM
GI50 [22]: 0.0184 µM
IC50 [22]: 0.0311 µM
GI50 [23]: 0.0869 µM
IC50 [23]: 0.37 µM
GI50 [24]: 0.172 µM
IC50 [24]: 0.348 µM
GI50 [25]: 0.105 µM
IC50 [25]: 0.136 µM
GI50 [26]: 0.0216 µM
IC50 [26]: 0.0399 µM
GI50 [27]: 0.195 µM
IC50 [27]: 0.327 µM
GI50 [28]: 0.114 µM
IC50 [28]: 0.142 µM
GI50 [29]: 0.0828 µM
IC50 [29]: 0.232 µM
GI50 [30]: 0.0156 µM
IC50 [30]: 0.0614 µM
GI50 [31]: 3.35 µM
IC50 [31]: 5.98 µM
GI50 [32]: 0.184 µM
IC50 [32]: 0.292 µM
GI50 [33]: 0.0088 µM
IC50 [33]: 0.0351 µM
GI50 [34]: 0.135 µM
IC50 [34]: 0.181 µM
GI50 [35]: 5.92 µM
IC50 [35]: 9.85 µM
GI50 [36]: 0.0476 µM
IC50 [36]: 0.173 µM
GI50 [37]: 0.0492 µM
IC50 [37]: 0.0798 µM
GI50 [38]: > 10 µM
IC50 [38]: > 10 µM
GI50 [39]: > 10 µM
IC50 [39]: > 10 µM
GI50 [40]: > 10 µM
IC50 [40]: > 10 µM
GI50 [41]: 2.21 µM
IC50 [41]: 6.59 µM
GI50 [42]: 0.0251 µM
IC50 [42]: 0.0495 µM
GI50 [43]: 0.23 µM
IC50 [43]: 0.373 µM
GI50 [44]: 0.053 µM
IC50 [44]: > 10 µM
GI50 [45]: 0.0692 µM
IC50 [45]: 0.101 µM
GI50 [46]: 0.175 µM
IC50 [46]: > 10 µM
GI50 [47]: 0.149 µM
IC50 [47]: 0.201 µM
GI50 [48]: 0.012 µM
IC50 [48]: 0.0354 µM
GI50 [49]: 0.0104 µM
IC50 [49]: 0.0133 µM
GI50 [50]: 0.183 µM
IC50 [50]: 0.67 µM
GI50 [51]: 0.0943 µM
IC50 [51]: 7.7 µM
GI50 [52]: 0.0143 µM
IC50 [52]: 0.0377 µM
GI50 (Hs766T, 72 h, Pancreas): 0.0343 µM
IC50 (Hs766T, 72 h, Pancreas): 0.0793 µM
GI50 (J82 (Bladder)): > 10 µM
IC50 (J82 (Bladder)): > 10 µM
GI50 [53]: 0.0017 µM
IC50 [53]: 0.0325 µM
GI50 [54]: > 10 µM
IC50 [54]: > 10 µM
GI50 (KPL-1, KPL1 (Breast)): > 10 µM
IC50 (KPL-1, KPL1 (Breast)): > 10 µM
GI50 [55]: 6.91 µM
IC50 [55]: 9.51 µM
GI50 (MT3 (Breast)): 0.674 µM
IC50 (MT3 (Breast)): 1.08 µM
GI50 [56]: 0.0401 µM
IC50 [56]: 0.0619 µM
GI50 [57]: 0.0181 µM
IC50 [57]: 0.0239 µM
GI50 (OCUG-1, OCUG1 (Liver)): 0.464 µM
IC50 (OCUG-1, OCUG1 (Liver)): 1.29 µM
GI50 [58]: 0.0939 µM
IC50 [58]: 0.124 µM
GI50 [59]: 3.66 µM
IC50 [59]: 3.84 µM
GI50 (RKO (Colon)): 0.0353 µM
IC50 (RKO (Colon)): 0.0405 µM
GI50 (RKOAS451, RKOAS451 (Colon)): 0.0405 µM
IC50 (RKOAS451, RKOAS451 (Colon)): 0.0449 µM
GI50 (SH4 (Skin, Melanoma)): 0.0208 µM
IC50 (SH4 (Skin, Melanoma)): 0.029 µM
GI50 [60]: 0.0274 µM
IC50 [60]: 0.482 µM
GI50 [61]: 1.42 µM
IC50 [61]: 1.84 µM
GI50 [62]: 0.0477 µM
IC50 [62]: 0.0708 µM
GI50 (T24 (Bladder)): 0.233 µM
IC50 (T24 (Bladder)): 0.274 µM
GI50 [63]: 0.0076 µM
IC50 [63]: 0.0128 µM
GI50 [64]: 0.0015 µM
IC50 [64]: 0.0095 µM
GI50 [65]: 0.0415 µM
IC50 [65]: 0.0539 µM
GI50 (Y79 (Eye-retinoblastoma, Eye)): > 10 µM
IC50 (Y79 (Eye-retinoblastoma, Eye)): > 10 µM
